19 compounds from PubChem BioAssay AID256 (DTP/NCI, 2004) can be followed below.

The assay deals with CD2F1 mice, L1210 leukemia ip, survival T/C. Nature of the assay: NCI In Vivo Anticancer Drug Screen. Data for tumor model L1210 Leukemia (intraperitoneal) in CD2F1 (CDF1) mice. The settings on record: higher = longer survival. Summed up:
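Activity against a transplanted murine tumor was judged by comparing the compound group with a vehicle group. The outcome in the treated animals was divided by that in the controls.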

Where [1] appears, read: endpoint: mean survival time, dose: 100.0 mg/kg/injection, schedule: Q01DX009 (ip), vehicle: saline with Tween-80.
Where [2] appears, read: endpoint: mean survival time, dose: 100.0 mg/kg/injection, schedule: Q04DX003 (ip), vehicle: saline with Tween-80.
Where [3] appears, read: endpoint: mean survival time, dose: 200.0 mg/kg/injection, schedule: Q01DX009 (ip), vehicle: saline with Tween-80.
The mark [4] stands for this setting: endpoint: mean survival time, dose: 200.0 mg/kg/injection, schedule: Q04DX003 (ip), vehicle: saline with Tween-80.
Where [5] appears, read: endpoint: mean survival time, dose: 400.0 mg/kg/injection, schedule: Q01DX009 (ip), vehicle: saline with Tween-80.
The mark [6] stands for this setting: endpoint: mean survival time, dose: 400.0 mg/kg/injection, schedule: Q04DX003 (ip), vehicle: saline with Tween-80.
Setting [7] is: endpoint: mean survival time, dose: 12.5 mg/kg/injection, schedule: Q04DX003 (ip), vehicle: saline.
Where [8] appears, read: endpoint: mean survival time, dose: 25.0 mg/kg/injection, schedule: Q04DX003 (ip), vehicle: saline.
[9] abbreviates: endpoint: mean survival time, dose: 100.0 mg/kg/injection, schedule: Q01DX001 (ip), vehicle: saline.
[10] abbreviates: endpoint: mean survival time, dose: 200.0 mg/kg/injection, schedule: Q01DX001 (ip), vehicle: saline.
The mark [11] stands for this setting: endpoint: mean survival time, dose: 100.0 mg/kg/injection, schedule: Q04DX002 (ip), vehicle: saline with Tween-80.

“And” between values parts separate entries of the source, which are not always exact repeats. Equal entries are not always repeated. Toxic doses and inconclusive results are not listed.

Turning to `Cc1cc(C)[nH]c(=O)n1`, the T/C is 94 % of control (endpoint: mean survival time, dose: 100.0 mg/kg/injection, schedule: Q04DX003 (ip), vehicle: saline); 102 % of control (endpoint: mean survival time, dose: 200.0 mg/kg/injection, schedule: Q04DX003 (ip), vehicle: saline); 94 % of control (endpoint: mean survival time, dose: 400.0 mg/kg/injection, schedule: Q04DX003 (ip), vehicle: saline).
On to `COc1ccc(/C=C/c2ccc3ccccc3n2)c(OC)c1`, for which the T/C runs as follows: under setting [1], 96 % of control; under setting [2], 96 % of control; under setting [3], 102 % of control; under setting [4], 96 % of control; under setting [5], 95 % of control; under setting [6], 96 % of control.
In the case of `c1ccc2c[n+]3cc4ccccc4cc3cc2c1`, the T/C reads like this: under setting [7], 104 % of control; under setting [8], 97 % of control.
As for `CC(=O)Nc1ccc([N+](=O)[O-])cc1`, the T/C by setting is: under setting [1], 96 % of control; under setting [2], 90 % of control; under setting [3], 101 % of control; under setting [4], 98 % of control; under setting [5], 111 % of control; under setting [6], 98 % of control.
Regarding `COC1(O)C(=O)c2ccccc2OC1(OC)c1ccc(Cl)cc1` (configuration not stated), the T/C runs as follows: (endpoint: mean survival time, dose: 50.0 mg/kg/injection, schedule: Q01DX001 (ip), vehicle: saline) 98 % of control; under setting [9], 102 % of control; under setting [10], 98 % of control; (endpoint: mean survival time, dose: 400.0 mg/kg/injection, schedule: Q01DX001 (ip), vehicle: saline) 98 % of control.
Turning to `CCCCCCCCCCCCCCCCCCN` (tested in a mixture with another compound), the T/C under setting [11] was 98 % of control and the T/C (endpoint: mean survival time, dose: 200.0 mg/kg/injection, schedule: Q04DX002 (ip), vehicle: saline with Tween-80) is 98 % of control.
As to `Cc1ccc(S(=O)(=O)NCCC(=O)Nc2ccccc2)cc1`, the T/C is 86 % of control (endpoint: mean survival time, dose: 50.0 mg/kg/injection, schedule: Q01DX009 (ip), vehicle: water); 86 % of control (endpoint: mean survival time, dose: 100.0 mg/kg/injection, schedule: Q01DX009 (ip), vehicle: water); 93 % of control (endpoint: mean survival time, dose: 200.0 mg/kg/injection, schedule: Q01DX009 (ip), vehicle: water).
Turning to `CCCCS/C=C\C(=O)OCC`, the T/C is, setting by setting: under setting [11], 102 % of control; (endpoint: mean survival time, dose: 400.0 mg/kg/injection, schedule: Q04DX002 (ip), vehicle: saline with Tween-80) 102 % of control.
Take `COC(=O)NC(N)=Nc1ccccc1`: the T/C was 96 % of control (endpoint: mean survival time, dose: 12.5 mg/kg/injection, schedule: Q01DX009 (ip), vehicle: saline with Tween-80) and 87 % of control (endpoint: mean survival time, dose: 25.0 mg/kg/injection, schedule: Q01DX009 (ip), vehicle: saline with Tween-80).
Regarding `O=[As](O)(c1ccccc1)C1CCCCC1O` (configuration not stated), the T/C (endpoint: mean survival time, dose: 25.0 mg/kg/injection, schedule: Q01DX001 (ip), vehicle: saline with Tween-80) is 98 % of control.
On to `O=C1N(O)C2(CCCCC2)/C(=N/O)C12CCCCC2`, for which the T/C is, setting by setting: (endpoint: mean survival time, dose: 75.0 mg/kg/injection, schedule: Q01DX001 (ip), vehicle: saline) 100 % of control; (endpoint: mean survival time, dose: 150.0 mg/kg/injection, schedule: Q01DX001 (ip), vehicle: saline) 94 % of control; (endpoint: mean survival time, dose: 300.0 mg/kg/injection, schedule: Q01DX001 (ip), vehicle: saline) 94 % of control.
As for `O=CC(O)C(O)C(O)C(O)C(=O)O.O=CC(O)C(O)C(O)C(O)C(=O)O.[NH-]C1CCCCC1[NH-].[Pt+2]` (configuration not stated), the T/C was 118 % of control (endpoint: mean survival time, dose: 1.56 mg/kg/injection, schedule: Q04DX003 (ip), vehicle: saline); 114 % of control (endpoint: mean survival time, dose: 3.12 mg/kg/injection, schedule: Q04DX003 (ip), vehicle: saline); 191 % of control and 184 % of control (endpoint: mean survival time, dose: 6.25 mg/kg/injection, schedule: Q04DX003 (ip), vehicle: saline); 212 % of control and 168 % of control and 213 % of control under setting [7]; 274 % of control [middle of 4 runs] under setting [8]; 154 % of control and 216 % of control and 330 % of control (endpoint: mean survival time, dose: 50.0 mg/kg/injection, schedule: Q04DX003 (ip), vehicle: saline). Moreover, the T/C is 104 % of control (endpoint: median survival time, dose: 3.12 mg/kg/injection, schedule: Q04DX003 (ip), vehicle: saline); 106 % of control (endpoint: median survival time, dose: 6.25 mg/kg/injection, schedule: Q04DX003 (ip), vehicle: saline); 106 % of control (endpoint: median survival time, dose: 12.5 mg/kg/injection, schedule: Q04DX003 (ip), vehicle: saline); 107 % of control (endpoint: median survival time, dose: 25.0 mg/kg/injection, schedule: Q04DX003 (ip), vehicle: saline); 111 % of control (endpoint: median survival time, dose: 50.0 mg/kg/injection, schedule: Q04DX003 (ip), vehicle: saline); 110 % of control (endpoint: median survival time, dose: 100.0 mg/kg/injection, schedule: Q04DX003 (ip), vehicle: saline). Where the note is “endpoint: median survival time, dose: 200.0 mg/kg/injection, schedule: Q04DX003 (ip), vehicle: saline”, the T/C is 116 % of control.
As to `c1ccc(C[P+](c2ccccc2)(c2ccccc2)c2ccccc2)cc1`, the T/C by setting is: (endpoint: mean survival time, dose: 0.63 mg/kg/injection, schedule: Q01DX009 (ip), vehicle: saline with Tween-80) 89 % of control; (endpoint: mean survival time, dose: 1.25 mg/kg/injection, schedule: Q01DX009 (ip), vehicle: saline with Tween-80) 100 % of control; (endpoint: mean survival time, dose: 2.5 mg/kg/injection, schedule: Q01DX009 (ip), vehicle: saline with Tween-80) 93 % of control.
Turning to `CC(C)(C)c1ccccc1O[Si](C)(C)C`, the T/C reads like this: (endpoint: mean survival time, dose: 50.0 mg/kg/injection, schedule: Q01DX009 (ip), vehicle: saline with Tween-80) 105 % of control; under setting [1], 94 % of control; under setting [2], 97 % of control; under setting [4], 94 % of control.
With `c1cc[c]([Sn]([NH]c2ncnc3[nH]cnc23)([NH]c2ncnc3[nH]cnc23)[c]2ccccc2)cc1`, the T/C by setting is: (endpoint: median survival time, dose: 12.5 mg/kg/injection, schedule: Q01DX009 (ip), vehicle: saline with Tween-80) 102 % of control; (endpoint: median survival time, dose: 12.5 mg/kg/injection, schedule: Q01DX009 (ip), vehicle: suspension in saline) 98 % of control; (endpoint: median survival time, dose: 25.0 mg/kg/injection, schedule: Q01DX009 (ip), vehicle: saline with Tween-80) 113 % of control; (endpoint: median survival time, dose: 25.0 mg/kg/injection, schedule: Q01DX009 (ip), vehicle: saline) 154 % of control; (endpoint: median survival time, dose: 25.0 mg/kg/injection, schedule: Q01DX009 (ip), vehicle: suspension in saline) 100 % of control; (endpoint: median survival time, dose: 50.0 mg/kg/injection, schedule: Q01DX009 (ip), vehicle: saline with Tween-80) 118 % of control. In addition, the T/C is, setting by setting: (endpoint: median survival time, dose: 50.0 mg/kg/injection, schedule: Q01DX009 (ip), vehicle: suspension in saline) 102 % of control; (endpoint: median survival time, dose: 100.0 mg/kg/injection, schedule: Q01DX009 (ip), vehicle: saline with Tween-80) 112 % of control; (endpoint: median survival time, dose: 100.0 mg/kg/injection, schedule: Q01DX009 (ip), vehicle: saline) 166 % of control; (endpoint: median survival time, dose: 100.0 mg/kg/injection, schedule: Q01DX009 (ip), vehicle: suspension in saline) 102 % of control; (endpoint: median survival time, dose: 200.0 mg/kg/injection, schedule: Q01DX009 (ip), vehicle: saline with Tween-80) 86 % of control; (endpoint: median survival time, dose: 200.0 mg/kg/injection, schedule: Q01DX009 (ip), vehicle: saline) 203 % of control. Also, the T/C (endpoint: median survival time, dose: 200.0 mg/kg/injection, schedule: Q01DX009 (ip), vehicle: suspension in saline) was 112 % of control.
As to `C=CCC(C#N)(CC=C)C(=O)OCC`, the T/C reads like this: (endpoint: mean survival time, dose: 50.0 mg/kg/injection, schedule: Q01DX001 (ip), vehicle: Klucel (hydroxypropylcellulose) (HPC)) 102 % of control; (endpoint: mean survival time, dose: 100.0 mg/kg/injection, schedule: Q01DX001 (ip), vehicle: Klucel (hydroxypropylcellulose) (HPC)) 96 % of control; (endpoint: mean survival time, dose: 200.0 mg/kg/injection, schedule: Q01DX001 (ip), vehicle: Klucel (hydroxypropylcellulose) (HPC)) 102 % of control.
Take `CC(C)CCCC(C)C1CCC2C3C(=O)C4=CC(=O)CCC4(C)C3CCC12C` (configuration not stated): the T/C is, setting by setting: (endpoint: mean survival time, dose: 100.0 mg/kg/injection, schedule: Q01DX001 (ip), vehicle: saline with Tween-80) 94 % of control; (endpoint: mean survival time, dose: 200.0 mg/kg/injection, schedule: Q01DX001 (ip), vehicle: saline with Tween-80) 96 % of control; (endpoint: mean survival time, dose: 400.0 mg/kg/injection, schedule: Q01DX001 (ip), vehicle: saline with Tween-80) 90 % of control.
As for `CCCCC(CC(=O)O)c1ccc(Cl)cc1` (configuration not stated), the T/C is, setting by setting: under setting [2], 95 % of control; under setting [4], 101 % of control.
As to `CC1CCC(C(C)C)/C(=N/NC(=O)CC#N)C1` (configuration not stated), the T/C under setting [9] was 98 % of control and the T/C under setting [10] is 95 % of control.
